Measured values from US7507739B2, “6-[(substituted)phenyl]triazolopyrimidines as anticancer agents” (Wyeth, priority 2003, dated 2009).
Marks after values point to notes of the source that are not given here.

Tests used:
[1] = Water uptake and hydrate stability at relative humidity; type: physicochemical; conditions: room temperature; for water absorbed: 80-100% relative humidity, about 24 h, forms dihydrate; for stability of dihydrate: 5-100% relative humidity
Description: To a slurry of 5-chloro-6-{2,6-difluoro-4-[3-(methylamino)propoxy]phenyl}-N-[(1S)-2,2,2-trifluoro-1-methylethyl][1,2,4]triazolo[1,5-a]pyrimidin-7-amine hydrochloride (7.50 g, 15.0 mmol) and water (100 mL) is added sodium hydroxide solution (10 N, 2.0 mL, 20 mmol) dropwise. Then, fumaric acid (3.48 g, 30 mmol) is added. The mixture is stirred for about 15-20 min and then heated to about 65-75° C. and stirred until all of the solid dissolves. The solution is filtered and the filtrate is cooled to about 0-5° C. over about 1 h. The mixture is stirred for 1 h and then filtered and the collected solid washed with cold water and isopropanol. The solid is dried under vacuum at about 60° C./10 mmHg for about 20 h to give a white solid (6.54 g, 75%) in anhydrous form. A portion of the compound is placed in a drying dish at 80-100% relative humidity (RH) and room temperature for about 24 h.
A mixture of 5-chloro-6-{2,6-difluoro-4-[3-(methylamino)propoxy]phenyl}-N-[(1S)-2,2,2-trifluoro-1-methylethyl][1,2,4]triazolo[1,5-a]pyrimidin-7-amine (9.00 g, 19.4 mmol) and succinic acid (2.75 g, 23.3 mmol) in water (90 mL) is stirred for about 15-20 min and then heated to about 65-75° C. The solution is filtered and the filtrate is cooled to about 0-5° C. over about 1 h. The mixture is stirred for about 1 h and then filtered and the collected solid washed with cold water (2×9 mL) and cold isopropanol (9 mL). The solid is dried under vacuum at about 40° C./10 mmHg for about 20 h to give a white solid in anhydrous form (6.6 g, 73%). A portion of the compound is placed in a drying dish at 80-100% relative humidity (RH) and room temperature for about 24 h.

[2] = system: H157 Human Non-Small Cell Lung Carcinoma; test: Human tumor xenograft test, H157; type: in vivo, athymic mice; conditions: for T/C on day 0 / T/C on day 2 / T/C on day 5 / T/C on day 8 / T/C on day 12 / T/C on day 15: days 0, 7
Description: The ability of compounds of this invention to inhibit tumor growth in animals is studied in the athymic mouse xenograft standard pharmacological test. Female nu/nu mice in an outbred albino background are obtained from Charles River Laboratories (Wilmington, Mass.). Animals are injected subcutaneously on the flank with the desired tumor cell suspension. Several days later, mice with tumors of approximately 150 mm^3 are selected from those injected (staged) and randomly distributed into groups of 5-10. The day of staging is called day 0. Compounds of the invention, usually formulated in saline (exceptions are noted in tables), are administered to animals by intravenous injection or oral gavage on various schedules starting on day 0 or 1, as noted in the tables. The control group in each experiment is dosed with vehicle on the same schedule. Tumor size is measured every 3-7 days with calipers in two orthogonal dimensions, and tumor volume is calculated from the formula volume=[(length×width^2)/2].
Tumor/Control (T/C) is obtained by dividing the mean tumor volume of the treated group by the mean tumor volume of the control group on each measurement day. A treatment dose is defined as active if it produced a statistically significant T/C of 0.50 or less. A p value≦0.05, determined by one-side Student's t-test, is required for statistical significance. A treatment dose is defined as toxic if more than 10% of the animals died from a compound-related toxicity.

COLO 205 cells = test: MTS cytotoxicity test with COLO 205 cells; type: cell-based, human; conditions: 3 days, Succinate Salt
In short: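 COLO 205 human colon carcinoma cells, 1000 per well, exposed 3 days at 37° C to nine 2-fold dilutions, typical final top concentration 5 μM. MTS absorbance normalized to time-0 plate; IC50 is concentration giving colour yield midway between untreated and fully killed controls.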

SMILES: CNCCCOc1cc(F)c(-c2c(Cl)nc3ncnn3c2N[C@@H](C)C(F)(F)F)c(F)c1.O=C(O)/C=C/C(=O)O [Example 2b, 5-Chloro-6-{2,6-difluoro-4-[3-(methylamino)propoxy]phenyl}-N-[(1S)-2,2,2-trifluoro-1-methylethyl][1,2,4]triazolo[1,5-a]pyrimidin-7-amine Fumarate Salt]
- water absorbed [1]: 5.8%
- stability of dihydrate [1]: stable at room temperature and at 5-100% relative humidity

SMILES: CNCCCOc1cc(F)c(-c2c(Cl)nc3ncnn3c2N[C@@H](C)C(F)(F)F)c(F)c1.O=C(O)CCC(=O)O [Example 2c, 5-Chloro-6-{2,6-difluoro-4-[3-(methylamino)propoxy]phenyl}-N-[(1S)-2,2,2-trifluoro-1-methylethyl][1,2,4]triazolo[1,5-a]pyrimidin-7-amine Succinate Salt]
- T/C on day 0 ([2]; H157, 10 mg/kg IV): 1.07
- T/C on day 2 ([2]; H157, 10 mg/kg IV): 1.09
- T/C on day 5 ([2]; H157, 10 mg/kg IV): 1.00
- T/C on day 8 ([2]; H157, 10 mg/kg IV): 0.96
- T/C on day 12 ([2]; H157, 10 mg/kg IV): 0.49*
- T/C on day 15 ([2]; H157, 10 mg/kg IV): 0.38*
- T/C on day 0 ([2]; H157, 20 mg/kg IV): 0.98
- T/C on day 2 ([2]; H157, 20 mg/kg IV): 0.96
- T/C on day 5 ([2]; H157, 20 mg/kg IV): 0.50**
- T/C on day 8 ([2]; H157, 20 mg/kg IV): 0.51*
- T/C on day 12 ([2]; H157, 20 mg/kg IV): 0.44*
- T/C on day 15 ([2]; H157, 20 mg/kg IV): 0.24**
- tumor growth inhibition (activity call) ([2]; H157 NSCLC, 20 and 10 mg/kg intravenously on days 0 and 7): active
- water absorbed [1]: 5.8%
- stability of dihydrate [1]: stable at room temperature and at 5-100% relative humidity
- IC50 (COLO 205 cells): 38 nM
